Literature values as cited in patent EP1112064B1, “METHOD FOR PREPARING NOVEL FENOFIBRATE GALENIC FORMULATIONS, GALENIC FORMULATIONS OBTAINED AND APPLICATIONS” (CLL Pharma, Arenas, priority 1998, dated 2000).

résorption intestinale (administered in sunflower oil): presque complète
demi-vie d'élimination (in vivo): ~20 heures
dose de fénofibrate administrée résorbée (one 300 mg capsule during a meal, reaches the blood as fenofibric acid): 60%
SMILES: CC(C)OC(=O)C(C)(C)Oc1ccc(C(=O)c2ccc(Cl)cc2)cc1 [fénofibrate, 2-(4-(4-chlorobenzoyl)-phénoxy)-2-méthyl propionate d'isopropyle]
